Assay results published in patent US11731977B2, “SGC stimulators” (Cyclerion Therapeutics, Inc., priority 2016, dated 2023).

How the values were obtained:
[1] = test system: R6/2 mice hippocampal slices; assay: Synaptic transmission and plasticity (LTP) in R6/2 mice hippocampal slices (Example 8); parameters: species or system mouse; conditions: R6/2 slices
Protocol: Improvements in synaptic transmission and plasticity, as measured by long term potentiation (LTP), is believed to indicate the potential of a compound to enhance memory. LTP is an electrophysiological phenomena that is commonly referred to as the a cellular phenomenon driving learning and memory.
Preparation of acute mice hippocampal slices. Experiments were carried out with 11 to 12 week-old R6/2 and WT mice provided by the Jackson Laboratory (USA). Hippocampal slices (350 μm thickness) were cut with a Macllwain tissue chopper in an ice-cold oxygenated sucrose solution (Saccharose 250, Glucose 11, NaHCO3 26, KCl 2, NaH2PO4 1.2, MgCl2 7, and CaCl2 0.5 in mM). The slices were incubated 1 hour at room temperature in ACSF of the following composition: Glucose 11, NaHCO3 25, NaCl 126, KCl 3.5, NaH2PO4 1.2, MgCl2 1.3, and CaCl2 2 in mM. Then, the slices were let to recover for at least 1 h.
Slice perfusion and temperature control. During the experiments, the slices were continuously perfused with the ACSF (bubbled with 95% O2-5% CO2) at the rate of 3 mL/min with a peristaltic pump (MEA chamber volume: ˜1 mL). Complete solution exchange in the MEA chamber was achieved 20 s after the switch of solutions. The perfusion liquid was continuously pre-heated at 37° C. just before reaching the MEA chamber with a heated-perfusion cannula (PH01, Multichannel Systems, Reutlingen, Germany). The temperature of the MEA chamber was maintained at 37±0.1° C. with a heating element located in the MEA amplifier headstage.
Input/Output (I/O)curve: from 100 to 800 μA, by 100 μA steps. The stimulus intensity was then set to a fixed value of 250 μA for the short- and long-term synaptic plasticity measurements.
Short-term plasticity properties: two pulses with a decreasing inter-stimuli interval (e.g. 300 ms, 200 ms, 100 ms, 50 ms, 25 ms) were applied. Compound application: fEPSP were recorded for 10 minutes in control conditions (to verify the baseline steadiness) followed by a 15-minute exposure to the compound (or 25 minutes in the presence of vehicle only for control slices). A second I/O protocol and paired-pulse protocol were applied, as described previously, in the continuous presence of the compound.
Long-Term Potentiation (LTP); Following a 10-minute control period (in the presence of the compound or vehicle for control slices), LTP was induced by a 10×TBS. Potentiation of synaptic transmission was then monitored for an additional 60-minute period (in the continuous presence of the compound or vehicle for control slices).

[2] = test system: rats; assay: Post-operative pain: Brennan model, electronic Von Frey test (Example 13); assay type: in vivo, rat; conditions: Compound I-1 p.o. 10 mg/kg, 120 minutes after treatment
Description: Surgery: Surgery was done under gas anesthesia (2.5% isoflurane/3 L/min). For all rats, the plantar aspect of the left hind paw was exposed and a 1 cm longitudinal incision was made using a surgical blade, through the skin and fascia of the plantar aspect of the foot, starting 0.5 cm from the proximal edge of the heel and extending toward the toes. The plantaris muscle was elevated and incised longitudinally whereas the insertions remained intact. After hemostasis with gentle pressure, the skin was stitched up with two sutures. After surgery, animals recovered in their cages.
Electronic Von Frey Test: Tactile allodynia was assessed using the electronic Von Frey test 24 h after surgery. […] The apparatus exerted a steady force on the hind paws. […] Each reaction threshold measurement was repeated three times for both hind paws with intervals of approximately 2 to 3 mins.

[3] = test system: Sprague-Dawley rats, streptozotocin model; assay: Rat model of diabetic neuropathy (STZ model), paw pressure test (Example 14); assay type: in vivo; conditions: Compound I-1 10 mg/kg p.o., mean±s.e.m.
[4] = test system: rats; assay: Inflammatory pain: carrageenan, paw pressure test (Example 13); assay type: in vivo, rat; conditions: Compound I-1 p.o. 10 mg/kg, 120 minutes after treatment
[5] = test system: rats; assay: Acute and tonic pain: healthy rats, paw pressure test (Example 13); conditions: Compound I-1 p.o. 10 mg/kg, 120 minutes after treatment
Protocol: Paw Pressure Test. Static mechanical hyperalgesia is measured. This test requires the application of an increasing pressure on the hind paws between a flat surface and a blunt pointer. To evaluate the analgesic action of a compound, one hind paw of the animal was inflamed by an injection or injured by ligation, while the other hind paw was not injured or inflamed. The apparatus exerted a steadily increasing force on the hind paws. The reaction threshold was determined as the pressure (g) required to elicit paw withdrawal and/or vocalization. The animals were gently handled by the experimenter and static mechanical hyperalgesia were assessed two times for both hind paws.
Testing: 120 minutes after treatment. N=4/model/test. Results are expressed for each group as a percentage of activity calculated from the mean value of the vehicle-treated animals and compared to naïve animals, control paw, or cut-off value, depending on the test.

Fc1ccccc1Cc1nc(-c2nc(C(F)(F)F)n[nH]2)cn2ccnc12 [Compound I-1, 8-(2-fluorobenzyl)-6-(3-(trifluoromethyl)-1H-1,2,4-triazol-5-yl)imidazo[1,2-a]pyrazine]
potentiation of the evoked-response amplitudes, stabilized level ([1]; 7 nM): around 25%
rescue of LTP impairment ([1]; 7 nM): failed to significantly rescue
fEPSP increase at endpoint after HFS (LTP) ([1]; 7 nM (R6/2 control 16±3%, WT 46±5%)): 26±6%
effect on short-term plasticity properties (paired pulses, 25 ms to 300 ms ISI) ([1]; 7 nM, 46 nM or 308 nM, exception 308 nM at 50 ms ISI): None of the evaluated Compound I-1 concentrations (7 nM, 46 nM or 308 nM) displayed a significant effect
effect on overall I/O characteristics ([1]; 7 nM, 46 nM, 308 nM): none of the 3 concentrations displayed a significant effect
potentiation of the evoked-response amplitudes, stabilized level ([1]; 46 nM): around 45%
fEPSP increase at endpoint after HFS (LTP) ([1]; 46 nM (R6/2 control 16±3%, WT 46±5%)): 44±12%
rescue of LTP impairment ([1]; 46 nM and 308 nM): completely restored the LTP deficit
potentiation of the evoked-response amplitudes, stabilized level ([1]; 308 nM): around 35%
fEPSP increase at endpoint after HFS (LTP) ([1]; 308 nM (R6/2 control 16±3%, WT 46±5%)): 37±9%
% of activity vs. vehicle [2]: 31%
nociceptive threshold (paw pressure test) ([3]; D18, 60 min post administration, gabapentin 100 mg/kg p.o., morphine 4 mg/kg s.c.): 328 ± 32.6 g
nociceptive threshold (paw pressure test) ([3]; D18, 120 min post administration, gabapentin 100 mg/kg p.o., morphine 4 mg/kg s.c.): 387 ± 30.2 g
nociceptive threshold (paw pressure test) ([3]; D18, 180 min post administration): 319 ± 23.1 g
nociceptive threshold (paw pressure test) ([3]; D21, 120 min after dosing, gabapentin 100 mg/kg p.o., morphine 4 mg/kg s.c.): 346 ± 20.5 g
nociceptive threshold (paw pressure test) ([3]; D21, baseline prior to administration (Cmin, daily dosing from D18)): 259 ± 25.6 g
% of activity vs. vehicle [4]: 38%
% of activity vs. vehicle [5]: −6%
